Like-named read-outs stand apart in the source and are kept apart here. Starred links: 1 amine or outer side, 2 acyl side, 3 side chain; linkers in the order of their positions; H or OH if unused. Non-standard residues stand in square brackets, D forms with d. Residues, ends and D or L forms follow the SMILES beside them. Groups on a side chain read outwards from the residue. *: point of attachment. C18 diacid = O=C(O)CCCCCCCCCCCCCCCCC(=O)*; γGlu = O=C(O)[C@H](CCC(=O)[*:2])N[*:1]; εLys = N[C@@H](CCCCN[*:1])C(=O)[*:2]; AEEA = NCCOCCOCC(=O)O; Aib = CC(C)(N)C(=O)O
Tests used:
human GLP-1 receptor = human GLP-1 receptor (Homo sapiens, UniProt P43220); assay: In vitro functional potency, CRE luciferase reporter, whole BHK cells (hGLP-1R); format: cell-based; set-up: expressed in transfected cells; host or cells: BHK (parent line BHKTS13), clone BHK CRE luc2P hGLP-1R; settings: BHK CRE luc2P hGLP-1R cells
Chain of human GLP-1 receptor (P43220 24-463): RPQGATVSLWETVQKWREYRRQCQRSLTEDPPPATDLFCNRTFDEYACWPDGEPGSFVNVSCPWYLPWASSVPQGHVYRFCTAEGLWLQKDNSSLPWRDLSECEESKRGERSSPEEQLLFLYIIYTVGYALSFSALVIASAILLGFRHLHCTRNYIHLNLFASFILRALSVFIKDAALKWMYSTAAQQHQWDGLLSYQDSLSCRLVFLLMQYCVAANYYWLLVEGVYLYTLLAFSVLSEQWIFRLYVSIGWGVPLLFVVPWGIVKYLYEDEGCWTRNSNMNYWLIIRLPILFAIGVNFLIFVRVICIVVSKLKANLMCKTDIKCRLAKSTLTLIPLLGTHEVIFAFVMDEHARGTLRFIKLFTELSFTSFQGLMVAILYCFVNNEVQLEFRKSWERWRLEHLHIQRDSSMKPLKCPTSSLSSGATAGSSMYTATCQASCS
Procedure: (§1) The in vitro functional potency is the measure of target receptor activation in a whole cell assay.
(§2) In vitro functional potency was determined by measuring the response of the target receptor in a reporter gene assay in individual cell lines. […] When the respective receptor is activated, it results in the production of cAMP, which in turn results in expression of the luciferase protein. When assay incubation is completed, luciferase substrate (luciferin) is added resulting in the enzymatic conversion of luciferin to oxyluciferin and producing bioluminescence. The luminescence is measured as the readout for the assay.
(§3) The cells lines used in these assays were BHK cells with BHKTS13 as a parent cell line. The cell lines were derived from a clone containing the CRE luciferase element and were established by further transfection with the respective human receptor to obtain the relevant cell line: BHK CRE luc2P hGLP-1R or BHK CRE luc2P hGIPR. The cells were cultured at 37° C. with 5% CO2 in Cell Culture Medium. They were aliquoted and stored in liquid nitrogen. The cells were kept in continuous culture and were seeded out the day before each assay.
(§4) GLP-1R Cell Culture Medium consisted of DMEM medium with 10% FBS, 500 µg/mL G418, and 300 µg/mL hygromycin. GIPR Cell Culture Medium consisted of DMEM medium with 10% FBS, 400 µg/mL G418, and 300 µg/mL hygromycin. Assay Buffer consisted of DMEM w/o phenol red, 10 mM Hepes, 1× Glutamax. 1% ovalbumin, and 0.1% Pluronic F-68 with the addition of HSA at twice the final assay concentration.
(§5) 1) Cells were plated at 5000 cells/well and incubated overnight in the assay plate. 2) Cells were washed once in DPBS. 3) Stocks of the test compounds and reference compounds in concentrations ranging from […] were diluted 1:150 in Assay Buffer. Compounds were then diluted 1:10 in column 1 of a 96 deep well dilution plate and then carried across the row creating a 3.5 fold, 12 point dilution curve. 4) Assay Buffer (50 μl aliquot) with or without HSA was added to each well in the assay plate. 5) A 50 μl aliquot of compound or blank was transferred from the dilution plate to the assay plate containing the Assay Buffer with or without HSA. 6) The assay plate was incubated for 3 h in a 5% CO2 incubator at 37° C. 7) The cells were washed once with DPBS. 8) A 100 μl aliquot of DPBS was added to each well of the assay plate. 9) A 100 μl aliquot of steadylite plus reagent (light sensitive) was added to each well of the assay plate. 10) Each assay plate was covered with aluminum foil to protect it from light and shaken at 250 RPM for 30 min at room temperature. 11) Each assay plate was read in a microtiter plate reader.
(§6) The data from the microtiter plate reader was first regressed in an Excel in order to calculate the x-axis, log scale concentrations based on the individual test compound's stock concentration and the dilutions of the assay. […] The software performs a non-linear regression (log(agonist) vs response). A minimum of two replicates was measured for each sample. The reported values are averages of the replicates.

human GIP receptor = target: T1, human GIP receptor (Homo sapiens, UniProt P48546); assay: In vitro functional potency, CRE luciferase reporter, whole BHK cells (hGIPR); format: cell-based; settings: BHK CRE luc2P hGIPR cells
T1 construct: expressed in transfected cells; host or cells: BHK (parent line BHKTS13), clone BHK CRE luc2P hGIPR
T1 sequence (P48546 22-466): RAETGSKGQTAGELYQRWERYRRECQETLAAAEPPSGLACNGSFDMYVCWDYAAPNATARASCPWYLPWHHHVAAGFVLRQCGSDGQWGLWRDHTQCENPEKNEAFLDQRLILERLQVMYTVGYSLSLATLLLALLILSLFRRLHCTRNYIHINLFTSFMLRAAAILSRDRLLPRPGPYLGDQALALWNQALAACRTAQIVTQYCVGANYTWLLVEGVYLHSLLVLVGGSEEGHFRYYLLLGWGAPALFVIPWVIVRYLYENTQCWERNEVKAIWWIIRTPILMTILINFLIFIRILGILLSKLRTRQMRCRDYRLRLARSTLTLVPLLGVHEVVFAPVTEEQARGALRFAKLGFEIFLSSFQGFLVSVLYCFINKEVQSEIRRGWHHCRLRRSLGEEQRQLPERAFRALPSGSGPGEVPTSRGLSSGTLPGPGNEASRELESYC
Procedure: as §1, §2, §3, §4, §5, §6

[1] = 0% HSA, read-out: hGLP-1R, CRE Luc 0% HSA EC50
[2] = hGLP-1R, CRE Luc 1% HSA EC50, 1% HSA
[3] = 0% HSA, read-out: hGIPR, CRE Luc 0% HSA EC50
[4] = hGIPR, CRE Luc 1% HSA EC50, 1% HSA

| Structure (SMILES) | EC50 (human GLP-1 receptor; [1]) | EC50 (human GLP-1 receptor; [2]) | EC50 (human GIP receptor; [3]) | EC50 (human GIP receptor; [4]) |
| --- | --- | --- | --- | --- |
| CC(C)C[C@H](NC(=O)[C@H](CC(C)C)NC(=O)[C@H](Cc1c[nH]c2ccccc12)NC(=O)[C@H](CC(N)=O)NC(=O)[C@@H](NC(=O)[C@H](Cc1ccccc1)NC(=O)[C@H](CCC(=O)O)NC(=O)[C@H](CCC(N)=O)NC(=O)[C@H](C)NC(=O)[C@H](C)NC(=O)[C@H](CCC(N)=O)NC(=O)[C@H](CCCCNC(=O)[C@@H](N)CCCCNC(=O)[C@@H](N)CCCCNC(=O)CC[C@H](NC(=O)CCCCCCCCCCCCCCCCC(=O)O)C(=O)O)NC(=O)[C@H](CCC(=O)O)NC(=O)[C@H](CC(C)C)NC(=O)[C@H](Cc1ccc(O)cc1)NC(=O)[C@H](Cc1ccc(O)cc1)NC(=O)[C@H](CO)NC(=O)[C@H](Cc1ccc(O)cc1)NC(=O)[C@H](CC(=O)O)NC(=O)[C@H](CO)NC(=O)[C@@H](NC(=O)[C@H](Cc1ccccc1)NC(=O)[C@@H](NC(=O)CNC(=O)[C@H](CCC(=O)O)NC(=O)C(C)(C)NC(=O)[C@@H](N)Cc1ccc(O)cc1)[C@@H](C)O)[C@@H](C)O)C(C)C)C(=O)N[C@@H](C)C(=O)NCC(=O)NCC(=O)N1CCC[C@H]1C(=O)N[C@@H](CO)C(=O)N[C@@H](CO)C(=O)NCC(=O)N[C@@H](C)C(=O)N1CCC[C@H]1C(=O)N1CCC[C@H]1C(=O)N1CCC[C@H]1C(=O)N[C@@H](CO)C(N)=O [Compound 3] (H-Y[Aib]EGTFTSDYSYYLEK([εLys-εLys-γGlu-C18 diacid])QAAQEFVNWLLAGGPSSGAPPPS-NH2) | 0.0085 nM | 0.626 nM | 0.0069 nM | 0.229 nM |
| CC[C@H](C)[C@H](NC(=O)[C@H](Cc1ccccc1)NC(=O)[C@H](CCC(=O)O)NC(=O)[C@H](CCCNC(=N)N)NC(=O)[C@H](C)NC(=O)[C@H](C)NC(=O)[C@H](CCC(N)=O)NC(=O)[C@H](CCC(=O)O)NC(=O)[C@H](CCC(=O)O)NC(=O)[C@H](CC(C)C)NC(=O)[C@H](Cc1ccc(O)cc1)NC(=O)[C@H](CCCCNC(=O)[C@@H](N)CCCCNC(=O)[C@@H](N)CCCCNC(=O)CC[C@H](NC(=O)CCCCCCCCCCCCCCCCC(=O)O)C(=O)O)NC(=O)[C@H](CO)NC(=O)[C@H](Cc1ccc(O)cc1)NC(=O)[C@H](CC(=O)O)NC(=O)[C@H](CO)NC(=O)[C@@H](NC(=O)[C@H](Cc1ccccc1)NC(=O)[C@@H](NC(=O)CNC(=O)[C@H](CCC(=O)O)NC(=O)C(C)(C)NC(=O)[C@@H](N)Cc1ccc(O)cc1)[C@@H](C)O)[C@@H](C)O)C(=O)N[C@@H](CC(N)=O)C(=O)N[C@@H](Cc1c[nH]c2ccccc12)C(=O)N[C@@H](CC(C)C)C(=O)N[C@@H](CC(C)C)C(=O)N[C@@H](C)C(=O)NCC(=O)NCC(=O)N1CCC[C@H]1C(=O)N[C@@H](CO)C(=O)N[C@@H](CO)C(=O)NCC(=O)N[C@@H](C)C(=O)N1CCC[C@H]1C(=O)N1CCC[C@H]1C(=O)N1CCC[C@H]1C(=O)N[C@@H](CO)C(=O)O [Compound 41] | 0.0012 nM | 0.0314 nM | 0.0049 nM | 0.0793 nM |
| CC[C@H](C)[C@H](NC(=O)[C@H](Cc1ccccc1)NC(=O)[C@H](CCC(=O)O)NC(=O)[C@H](CCCNC(=N)N)NC(=O)[C@H](C)NC(=O)[C@H](C)NC(=O)[C@H](CCC(N)=O)NC(=O)[C@H](CCCCNC(=O)[C@@H](N)CCCCNC(=O)[C@@H](N)CCCCNC(=O)CC[C@H](NC(=O)CCCCCCCCCCCCCCCCC(=O)O)C(=O)O)NC(=O)[C@H](CCC(=O)O)NC(=O)[C@H](CC(C)C)NC(=O)[C@H](CC(C)C)NC(=O)[C@@H](NC(=O)[C@H](CO)NC(=O)[C@H](Cc1ccc(O)cc1)NC(=O)[C@H](CC(=O)O)NC(=O)[C@H](CO)NC(=O)[C@@H](NC(=O)[C@H](Cc1ccccc1)NC(=O)[C@@H](NC(=O)CNC(=O)[C@H](CCC(=O)O)NC(=O)C(C)(C)NC(=O)[C@@H](N)Cc1ccc(O)cc1)[C@@H](C)O)[C@@H](C)O)[C@@H](C)CC)C(=O)N[C@@H](CCC(N)=O)C(=O)N[C@@H](Cc1c[nH]c2ccccc12)C(=O)N[C@@H](CC(C)C)C(=O)N[C@@H](CC(C)C)C(=O)N[C@@H](C)C(=O)NCC(=O)NCC(=O)N1CCC[C@H]1C(=O)N[C@@H](CO)C(=O)N[C@@H](CO)C(=O)NCC(=O)N[C@@H](C)C(=O)N1CCC[C@H]1C(=O)N1CCC[C@H]1C(=O)N1CCC[C@H]1C(=O)N[C@@H](CO)C(=O)O [Compound 23] (H-Y[Aib]EGTFTSDYSILLEK([εLys-εLys-γGlu-C18 diacid])QAAREFIQWLLAGGPSSGAPPPS-OH) | 0.0041 nM | 0.118 nM | 0.0067 nM | 0.134 nM |
| CC[C@H](C)[C@H](NC(=O)[C@H](Cc1ccccc1)NC(=O)[C@H](CCC(=O)O)NC(=O)[C@H](CCCNC(=N)N)NC(=O)[C@H](C)NC(=O)[C@H](C)NC(=O)[C@H](CCC(N)=O)NC(=O)[C@H](CCCCNC(=O)COCCOCCNC(=O)COCCOCCNC(=O)CC[C@H](NC(=O)CCCCCCCCCCCCCCCCC(=O)O)C(=O)O)NC(=O)[C@H](CCC(=O)O)NC(=O)[C@H](CC(C)C)NC(=O)[C@H](CC(C)C)NC(=O)[C@@H](NC(=O)[C@H](CO)NC(=O)[C@H](Cc1ccc(O)cc1)NC(=O)[C@H](CC(=O)O)NC(=O)[C@H](CO)NC(=O)[C@@H](NC(=O)[C@H](Cc1ccccc1)NC(=O)[C@@H](NC(=O)CNC(=O)[C@H](CCC(=O)O)NC(=O)C(C)(C)NC(=O)[C@@H](N)Cc1ccc(O)cc1)[C@@H](C)O)[C@@H](C)O)[C@@H](C)CC)C(=O)N[C@@H](CC(N)=O)C(=O)N[C@@H](Cc1c[nH]c2ccccc12)C(=O)N[C@@H](CC(C)C)C(=O)N[C@@H](CC(C)C)C(=O)N[C@@H](C)C(=O)NCC(=O)NCC(=O)N1CCC[C@H]1C(=O)N[C@@H](CO)C(=O)N[C@@H](CO)C(=O)NCC(=O)N[C@@H](C)C(=O)N1CCC[C@H]1C(=O)N1CCC[C@H]1C(=O)N1CCC[C@H]1C(=O)N[C@@H](CO)C(=O)O [Compound 35] (H-Y[Aib]EGTFTSDYSILLEK([AEEA-AEEA-γGlu-C18 diacid])QAAREFINWLLAGGPSSGAPPPS-OH) | 0.003 nM | 0.413 nM | 0.0052 nM | 0.303 nM |
